In US20220315621A1, “COMPOSITIONS AND METHODS FOR TREATING CNS DISORDERS” (priority 2017, published 2022):

Target: GABAA receptor (rat brain cortical membranes, [35S]-TBPS binding)
Details: Table I-4; rat brain cortical membranes, 3 nM [35S]-TBPS, in the presence of 5 mM GABA

| Compound | IC50 [nM] |
| --- | --- |
| C[C@]12CC[C@H]3[C@@H](CC[C@@H]4C[C@H](O)CC[C@@H]43)[C@@H]1CC[C@H](C(=O)Nc1ccccc1)C2 (single isomer, unassigned) [I-R24] | 1000 to 10000 |
| C[C@@]1(O)CC[C@H]2[C@H](CC[C@@H]3[C@@H]2CC[C@]2(C)[C@@H](Nc4ccc(C#N)cc4)CCC[C@@H]32)C1 [Compound I-7, 4-(((1S,4aS,4bR,6aR,8R,10aS,10bR,12aS)-8-hydroxy-8,12a-dimethyloctadecahydrochrysen-1-yl)amino)benzonitrile] | 10 to 100 |
| C[C@@]1(O)CC[C@H]2[C@H](CC[C@@H]3[C@@H]2CC[C@]2(C)[C@@H](Nc4ccc(Cl)cc4)CCC[C@@H]32)C1 [Compound I-8, (2R,4aS,4bR,6aS,7S,10aS,10bR,12aR)-7-((4-chlorophenyl)amino)-2,6a-dimethyloctadecahydrochrysen-2-ol] | 10 to 100 |
| C[C@@]1(O)CC[C@H]2[C@H](CC[C@@H]3[C@@H]2CC[C@]2(C)[C@@H](Nc4cccc(Cl)c4)CCC[C@@H]32)C1 [Compound I-9, (2R,4aS,4bR,6aS,7S,10aS,10bR,12aR)-7-((3-chlorophenyl)amino)-2,6a-dimethyloctadecahydrochrysen-2-ol] | 10 to 100 |
| C[C@@]1(O)CC[C@H]2[C@H](CC[C@@H]3[C@@H]2CC[C@]2(C)[C@@H](Nc4cccc(C#N)c4)CCC[C@@H]32)C1 [Compound I-10, 3-(((1S,4aS,4bR,6aR,8R,10aS,10bR,12aS)-8-hydroxy-8,12a-dimethyloctadecahydrochrysen-1-yl)amino)benzonitrile] | 10 to 100 |
| C[C@@]1(O)CC[C@H]2[C@H](CC[C@@H]3[C@@H]2CC[C@]2(C)[C@H](Nc4cccc(C#N)c4)CCC[C@@H]32)C1 [Compound I-10a, 3-(((1R,4aS,4bR,6aR,8R,10aS,10bR,12aS)-8-hydroxy-8,12a-dimethyloctadecahydrochrysen-1-yl)amino)benzonitrile] | 100 to 1000 |
| C[C@@]1(O)CC[C@H]2[C@H](CC[C@@H]3[C@@H]2CC[C@]2(C)[C@@H](Nc4ccc(F)cc4)CCC[C@@H]32)C1 [Compound I-11, (2R,4aS,4bR,6aS,7S,10aS,10bR,12aR)-7-((4-fluorophenyl)amino)-2,6a-dimethyloctadecahydrochrysen-2-ol] | 100 to 1000 |
| C[C@@]1(O)CC[C@H]2[C@H](CC[C@@H]3[C@@H]2CC[C@]2(C)[C@H](Nc4ccc(F)cc4)CCC[C@@H]32)C1 [Compound I-11a, (2R,4aS,4bR,6aS,7R,10aS,10bR,12aR)-7-((4-fluorophenyl)amino)-2,6a-dimethyloctadecahydrochrysen-2-ol] | 1000 to 10000 |
| C[C@@]1(O)CC[C@H]2[C@H](CC[C@@H]3[C@@H]2CC[C@]2(C)[C@@H](Nc4cccc(F)c4)CCC[C@@H]32)C1 [Compound I-12, (2R,4aS,4bR,6aS,7S,10aS,10bR,12aR)-7-((3-fluorophenyl)amino)-2,6a-dimethyloctadecahydrochrysen-2-ol] | 10 to 100 |
| C[C@@]1(O)CC[C@H]2[C@H](CC[C@@H]3[C@@H]2CC[C@]2(C)[C@@H](C(=O)NCc4ccccc4)CCC[C@@H]32)C1 [Compound I-14, (1S,4aS,4bR,6aR,8R,10aS,10bR,12aS)-N-benzyl-8-hydroxy-8,12a-dimethyloctadecahydrochrysene-1-carboxamide] | 10 to 100 |
| C[C@@]1(O)CC[C@H]2[C@H](CC[C@@H]3[C@@H]2CC[C@]2(C)[C@@H](C(=O)Nc4ccccc4)CCC[C@@H]32)C1 [Compound I-15, (1S,4aS,4bR,6aR,8R,10aS,10bR,12aS)-8-hydroxy-8,12a-dimethyl-N-phenyloctadecahydrochrysene-1-carboxamide] | 10 to 100 |
| CCN(CC)C(=O)[C@H]1CCC[C@H]2[C@@H]3CC[C@@H]4C[C@](C)(O)CC[C@@H]4[C@H]3CC[C@]12C [Compound I-16, (1S,4aS,4bR,6aR,8R,10aS,10bR,12aS)-N,N-diethyl-8-hydroxy-8,12a-dimethyloctadecahydrochrysene-1-carboxamide] | 1000 to 10000 |
| C[C@@]1(O)CC[C@H]2[C@H](CC[C@@H]3[C@@H]2CC[C@]2(C)[C@@H](C(=O)NCc4ccccn4)CCC[C@@H]32)C1 [Compound I-17, (1S,4aS,4bR,6aR,8R,10aS,10bR,12aS)-8-hydroxy-8,12a-dimethyl-N-(pyridin-2-ylmethyl)octadecahydrochrysene-1-carboxamide] | 10 to 100 |
| Cc1nnn(CC(=O)[C@H]2CCC[C@H]3[C@@H]4CC[C@@H]5C[C@](C)(O)CC[C@]5(C)[C@H]4CC[C@]23C)n1 [Compound I-20, 1-((1S,4aS,4bR,6aR,8R,10aS,10bS,12aS)-8-hydroxy-8,10a,12a-trimethyloctadecahydrochrysen-1-yl)-2-(5-methyl-2H-tetrazol-2-yl)ethan-1-one] | 100 to 1000 |
| Cc1nnnn1CC(=O)[C@H]1CCC[C@H]2[C@@H]3CC[C@@H]4C[C@](C)(O)CC[C@]4(C)[C@H]3CC[C@]12C [Compound I-20a, 1-((1S,4aS,4bR,6aR,8R,10aS,10bS,12aS)-8-hydroxy-8,10a,12a-trimethyloctadecahydrochrysen-1-yl)-2-(5-methyl-1H-tetrazol-1-yl)ethan-1-one] | 100 to 1000 |
| COC[C@@]1(O)CC[C@H]2[C@@H](CC[C@@H]3[C@@H]2CC[C@]2(C)[C@@H](Nc4ccc(F)cc4)CCC[C@@H]32)C1 [Compound I-23, (2R,4aS,4bR,6aS,7S,10aS,10bR,12aS)-7-((4-fluorophenyl)amino)-2-(methoxymethyl)-6a-methyloctadecahydrochrysen-2-ol] | 10 to 100 |
| COC[C@@]1(O)CC[C@H]2[C@@H](CC[C@@H]3[C@@H]2CC[C@]2(C)[C@H](Nc4ccc(F)cc4)CCC[C@@H]32)C1 [Compound I-23a, (2R,4aS,4bR,6aS,7R,10aS,10bR,12aS)-7-((4-fluorophenyl)amino)-2-(methoxymethyl)-6a-methyloctadecahydrochrysen-2-ol] | 1000 to 10000 |
| COC[C@@]1(O)CC[C@H]2[C@@H](CC[C@@H]3[C@@H]2CC[C@]2(C)[C@@H](C(=O)NCc4ccccc4)CCC[C@@H]32)C1 [Compound I-25, (1S,4aS,4bR,6aS,8R,10aS,10bR,12aS)-N-benzyl-8-hydroxy-8-(methoxymethyl)-12a-methyloctadecahydrochrysene-1-carboxamide] | 10 to 100 |
| COC[C@@]1(O)CC[C@H]2[C@@H](CC[C@@H]3[C@@H]2CC[C@]2(C)[C@@H](C(=O)NCc4ccccn4)CCC[C@@H]32)C1 [Compound I-26, (1S,4aS,4bR,6aS,8R,10aS,10bR,12aS)-8-hydroxy-8-(methoxymethyl)-12a-methyl-N-(pyridin-2-ylmethyl)octadecahydrochrysene-1-carboxamide] | 100 to 1000 |
| COC[C@@]1(O)CC[C@H]2[C@@H](CC[C@@H]3[C@@H]2CC[C@]2(C)[C@@H](C(=O)Nc4ccccc4)CCC[C@@H]32)C1 [Compound I-27, (1S,4aS,4bR,6aS,8R,10aS,10bR,12aS)-8-hydroxy-8-(methoxymethyl)-12a-methyl-N-phenyloctadecahydrochrysene-1-carboxamide] | 10 to 100 |
